Measurements as given in PMC7828228, “Babesia Bovis Ligand-Receptor Interaction: AMA-1 Contains Small Regions Governing Bovine Erythrocyte Binding” (International Journal of Molecular Sciences, 2021).
Ends that are not written are not given here.

Key:
[1] = system: bovine erythrocytes; assay: Radiolabelled peptide bovine erythrocyte binding assay (initial screen)
Experimental: Peptide selection was based on the degree of conservation and the presence of functionally constricted regions found throughout B. bovis ama-1 gene. Twelve peptides were synthesised using the tert-butoxycarbonyl (t-Boc) strategy and solid-phase synthesis methodology. Cysteine residues were replaced by serine residue to avoid oxidation; a tyrosine residue was added to peptides lacking one in their native sequences to enable radiolabelling. The peptides were analysed using reversed-phase high-performance liquid chromatography (RP-HPLC) and MALDI-TOF mass spectrometry (Bruker Daltonics) after having been cleaved by the low–high hydrogen fluoride technique. Every peptide (10 μL) diluted at 1mg/mL in 4-(2-hydroxyethyl)-1-piperazineethanesulphonic acid buffered saline (HBS) was individually radiolabelled for 15 min using 3 μL Na^125I (100 mCi/mL; ARC) and 15 μL chloramine T (2.75 mg/mL). […] A gamma counter (Packard Cobra II) was used for measuring/quantifying single samples’ radioactivity.
(§1) The assays for every B. bovis AMA-1-derived synthetic peptide binding to bovine erythrocytes were carried out as described for P. falciparum, with some modifications. […] HABP bovine erythrocyte binding selection criteria were determined according to that established for P. falciparum. […]

[2] = system: bovine erythrocyte membrane receptor; assay: Cross-linking assay (BS3, SDS-PAGE, autoradiography); type: binding; conditions: autoradiogram, Figure 2c
Experimental: Cross-linking assays were used in triplicate for evaluating B. bovis AMA-1 interaction with any membrane receptor. The assay consisted of incubating radiolabelled peptide with 7.5 × 10^7 bovine erythrocytes (v/v) at RT for 2 h at 4 rpm. A competition assay was used as control using an excess of non-radiolabelled peptide. The mixture was incubated for two hours at RT with 0.4 µg/mL bis(sulphosuccinimidyl) suberate (BS3) and then washed thrice with HBS. The cells were then lysed in 30 µL lysis buffer (15 µL buffer A (50 mM Tris-HCl, 100 mM NaCl and 0.1 mM EDTA) and 15 µL buffer B (0.5 M Tris-HCl, 10% SDS (w/v), 25% glycerol, 0.5% (w/v) bromophenol blue and […] β-mercaptoethanol, pH 6.8)) and spun at 14,000× g for 10 min. SDS-PAGE was used for separating the proteins and radioactivity signals were observed by autoradiography. Radiolabelled peptide 43437 (1 µM) binding competition assay involved using different non-radiolabelled peptide 42438 concentrations (0–160 µM).

[3] = biological target: bovine RBCs; assay: Saturation assay of radiolabelled HABPs; type: binding; conditions: saturation analysis; 7.5 × 10^7 RBCs, radiolabelled HABP 0–6000 nM, ± unlabelled peptide ~26 μM, 90 min at RT, 1:1 interaction model
Experimental: Modified binding assays were carried out to determine kinetic constants associated with B. bovis AMA-1 HABP binding interaction with bovine RBCs. Briefly, 7.5 × 10^7 RBCs were incubated with a wide range of concentrations of each radiolabelled HABP (0–6000 nM) in the absence or presence of unlabelled peptide (~26 μM) at final 245 μL volume. Samples were incubated for 90 min at RT and then washed twice with HBS before measuring cell-associated radioactivity on a gamma counter. Equilibrium dissociation constants (kD), equivalent to the ligand concentration (moles/litre) occupying half of the receptors, were calculated by equilibrium phase curve (using a 1:1 interaction model). Hill coefficients (nH) were calculated by taking saturation results; positive cooperativity was assumed if nH had values higher than 1 which could have been the result of a binding site’s increased affinity due to a ligand’s previous binding to another site. Conversely, nH values lower than 1 would have indicated negative cooperativity (also called antagonism) and the first ligand molecule’s binding would have reduced the probability of a second molecule binding.

[4] = system: trypsin-, chymotrypsin-, and neuraminidase-treated bovine erythrocytes; assay: Binding assay with enzyme-treated erythrocytes; conditions: 37 °C, 1h 30 min, untreated RBC as control, SD below 5%
Experimental: A blood sample was obtained by jugular venepuncture from a clinically healthy Normande 18month-old bull and collected in anticoagulant tubes. The animal was properly restrained/fastened and then its head was secured by a strap and rope. After locating the external jugular vein and applying pressure, the area was disinfected with ethanol for inserting the needle at a 30° angle and 20 mL blood samples were collected in tubes containing sodium citrate using the closed system. The above procedures and animal maintenance and handling were carried out at the Remanso farm, according to guidelines for the care of large animals established by Universidad de Ciencias Aplicadas y Ambientales (U.D.C.A)’s ethics committee (regulated by agreement No. 285/2008) using the protocol described in the minute 201901. The collected blood was washed thrice with HBS (1:1 ratio) to eliminate the sera and the leucocyte layer by spinning at 1600× g for 5 min for each run. A 60% erythrocyte solution was incubated at 37 °C for 1h 30 min with trypsin (1 mg/mL), chymotrypsin (1 mg/mL) and neuraminidase (100 μU/mL). After three washes using 250× g for 3 min, 4 × 10^5 erythrocytes were incubated with 5 μM […] at 37 °C for 45 min in the dark. An assay was carried out with erythrocytes treated at 37 °C for 30 min or with 0.05% or 0.005% triton X-100 for 15 min at room temperature (RT) for using them as cell lysis controls. A FACSC Canto II cytometer (BD) was used for determining cell viability by analysing 100,000 events.
as §1

[5] = biological target: receptor on bovine erythrocytes having an apparent 75 kDa molecular weight (bovine (endogenous in bovine erythrocytes)); assay: radioligand binding; saturation: 7.5 x 10^7 bovine erythrocytes, 125I-peptide 0-6000 nM without or with ~26 μM unlabelled peptide, 245 μL, 90 min at RT, HBS washes; 1:1 model, Hill plot
[6] = biological target: receptor on bovine erythrocytes having an apparent 75 kDa molecular weight (bovine (endogenous in bovine erythrocytes)); assay: radioligand binding; as the screen but on erythrocytes treated beforehand with trypsin (1 mg/mL), chymotrypsin (1 mg/mL) or neuraminidase (100 μU/mL); 1 h at 37 °C without shaking; untreated erythrocytes as control

## RGVGMNWATYDKDSG [^395R-G^409]
[1]; radiolabelled peptide-cell interaction assay, Figure 1b
  interaction with bovine erythrocytes (binding activity, in words): did not interact with bovine erythrocytes

## CPMHPVRDAIFGKWSGGSCV [compound 42443]
[2]
  intensity of cross-linking interaction with the receptor: significantly less intense
[3]
  Kd: 2400 nM
[1]; 7.5 × 10^7 normal cells, 2 h at RT, radiolabelled peptide 20–200 nM, absence or presence of non-radiolabelled peptide 20 μM, 200 μL, triplicate, HABP if slope ≥0.01 (1%)
  specific binding slope (binding activity): > 0.01
[4]; erythrocytes treated with chymotrypsin 1 mg/mL
  reduction of binding with chymotrypsin-treated erythrocytes: 46%
[4]; erythrocytes treated with neuraminidase 100 μU/mL
  reduction of binding with neuraminidase-treated erythrocytes: 42%
[4]; erythrocytes treated with trypsin 1 mg/mL
  reduction of binding with trypsin-treated erythrocytes: a lesser effect

## YMQKFDIPRNHGSGIYVDLG (also: 125I radio-iodination, site not given here) [B. bovis AMA-1 Domain I-derived peptide 42437]
[5]
  Kd: 1100 nM
[6]
  percent reduction of binding, chymotrypsin-treated against untreated erythrocytes: 58%
  percent reduction of binding, neuraminidase-treated against untreated erythrocytes: 36%
  percent reduction of binding, trypsin-treated against untreated erythrocytes: 31%

## GYESVGSKSYRMPVGKSPVV (also: 125I radio-iodination in tracer use, site not given here) [B. bovis AMA-1 Domain I-derived peptide 42438]
[5]
  Kd: 1300 nM
[6]
  percent reduction of binding, chymotrypsin-treated against untreated erythrocytes: 66%
